According to patent publication US20180305719A1, “Vectors For Integration Of DNA Into Genomes And Methods For Altering Gene Expression And Interrogating Gene Function” (The Board of Trustees of the University of Illinois, priority 2017, published 2018):

Experiments:
Assay type in all cases: cell-based, human
HCT116 cells = experiment: Quantification of integration efficiency (colonies after antibiotic selection); settings: for Avg. Colonies: 450,000 cells transfected
Procedure: HCT116 cells were transfected with individual RGNs targeting either CTTN exon 8 or HLA-DRA, as well as Cas9, one universal RGN, and either one or two transfer vectors with expression cassettes conferring resistance to puromycin or puromycin and hygromycin. A total of 450,000 cells were transfected using 100 ng of each plasmid. The transfection efficiency was ˜55% as determined by FACS following delivery of a control GFP expression plasmid. Three days post transfection, 90% of cells from each well were harvested and replated into 10 cm dishes for selection with the appropriate antibiotics. Cells with monoallelic modifications were selected with puromycin whereas cells with biallelic modifications were selected with puromycin and hygromycin. Media and antibiotics were replenished every three days. Visible colonies appeared after approximately after one week. The number of clones for each transfection was counted and integration efficiency was determined as the ratio of the number of clonal cells derived from each transfection relative to the number of alleles modified by each specific sgRNA, as measured in experimental control samples using the surveyor assay.
Following selection in 10-cm plates with the appropriate antibiotic, total colonies were counted and divided by total cells transfected to obtain the overall editing efficiency of NAVI. This value was then adjusted to account for overall sgRNA editing efficiency, as measured by surveyor nuclease assay. This quantification was performed at 2 different loci using either a single or two antibiotics for selection.

NEUROD1 [1] = experiment: NEUROD1 expression by qPCR in HCT116 and MRC-5 cells
Procedure: (§1) 293T and HCT116 cells were obtained from the American Tissue Collection Center (ATCC) and were maintained in DMEM supplemented with 10% fetal bovine serum and 1% penicillin/streptomycin at 37° C. with 5% CO2. 293T and HCT116 cells were transfected with Lipofectamine 2000 (Invitrogen) according to manufacturer's instructions. Transfection efficiencies were routinely higher than 80% for 293T cells and higher than 50% for HCT116 cells as determined by fluorescent microscopy following delivery of a control GFP expression plasmid. Induction of gene expression, unless otherwise noted, was carried out with 200 ng/mL doxycycline in DMEM prepared with 10% tetracycline-free FBS for 4 days.
(§2) Cells were harvested and flash-frozen in liquid nitrogen prior to RNA-extraction using the RNeasy Plus RNA isolation kit (Qiagen) according to manufacturer's instructions. cDNA synthesis was carried out using the qScript cDNA Synthesis Kit (Quanta Biosciences) from 1 μg of RNA and reactions were performed as directed by the supplier. For RT-qPCR, SsoFast EvaGreen Supermix (Bio-Rad) was added to cDNA and primers targeting the gene of interest and GAPDH (Table 10). Following 30 s at 95° C., qPCR (5 s at 95° C., 20 s at 55° C., 40 total cycles) preceded melt-curve analysis of the product by the CFX Connect Real-Time System (Bio-Rad). Ct values were used to calculate changes in expression level, relative to GAPDH and control samples by the 2^−ΔΔCt method.
To further explore the trends we observed in 293T cells, NeuroD1 was targeted using the cdpTV in other cell lines.

NEUROD1 [2] = experiment: Activation of native gene expression in 293T cells, qPCR; settings: for induction of NEUROD1: 200 ng/mL doxycycline, NAVIa-edited 293T; for increase in NEUROD1 gene expression: idpTV-edited cells
Procedure: as §1, §2
In order to evaluate this gene activation architecture in the context of the human genome, three target genes were selected whose reported levels of activation utilizing CRISPRa are either high (ASCL1, ˜10^3-fold), medium (NEUROD1, ˜10^2-fold), or low (POU5F1, ˜10-fold). The primary sgRNAs targeting the genome were co-transfected into 293T cells with three plasmids containing (1) an expression cassette for active Cas9, (2) customized cspTV, cdpTV or idpTV, and (3) a universal secondary sgRNA. Following transfection, cells with integration of the TV were selected using puromycin and, in cells transfected with the idpTV, gene expression was induced with doxycycline. In parallel, one sgRNA or a mixture of 4 sgRNAs (previously validated for use with CRISPRa) were co-transfected into 293 Ts with dCas9-VPR for comparison of the NAVIa with CRISPRa. Gene expression using an individual sgRNA directing dCas9-VPR to target promoters was increased ˜10-fold for all targets tested but not statistically significant. Utilization of 4 sgRNAs simultaneously activated gene expression more effectively than 1 sgRNA (ASCL1: ˜1800-fold, NEUROD1: ˜2900-fold, POU5F:1 ˜90-fold). […] However, the idpTV (ASCL1: ˜7200-fold, NEUROD1: ˜76000-fold, POU5F1: ˜5370-fold) surpassed activation obtained using dCas9-VPR using 4 sgRNAs (FIG. 14B).

[3] = selection Puromycin + Hygromycin

Compound: HLA-DRA: sgRNA, protospacer GCTGTGCTGATGAGCGCTC, SEQ ID NO 9 (expressed or natural sequence)
- % Efficiency (adjusted by indel %) (HCT116 cells; selection Puromycin): 26.40%
- % Efficiency (colonies/transfected cells) (HCT116 cells; selection Puromycin): 0.58%
- % Efficiency (adjusted by indel %) (HCT116 cells; [3]): 4.60%
- % Efficiency (colonies/transfected cells) (HCT116 cells; [3]): 0.10%
- Avg. Colonies (HCT116 cells; [3]): 453
- Avg. Colonies (HCT116 cells; selection Puromycin): 2610

Compound: CTTN exon 8: sgRNA, protospacer GCGCTCTTGTCTACTCGGT, SEQ ID NO 8 (expressed or natural sequence)
- % Efficiency (adjusted by indel %) (HCT116 cells; selection Puromycin): 12.00%
- % Efficiency (colonies/transfected cells) (HCT116 cells; selection Puromycin): 0.38%
- % Efficiency (adjusted by indel %) (HCT116 cells; [3]): 5.00%
- % Efficiency (colonies/transfected cells) (HCT116 cells; [3]): 0.16%
- Avg. Colonies (HCT116 cells; [3]): 725
- Avg. Colonies (HCT116 cells; selection Puromycin): 1726

Compound: C[C@H]1c2cccc(O)c2C(=O)C2=C(O)[C@]3(O)C(=O)C(C(N)=O)=C(O)[C@@H](N(C)C)[C@@H]3[C@@H](O)[C@@H]21 [doxycycline]
- ratio of gene expression between samples with and without doxycycline treatment (NEUROD1 [1]; heterozygous clones): ~426 fold
- ratio of gene expression between samples with and without doxycycline treatment (NEUROD1 [1]; homozygous clones): ~1486 fold
- ratio of gene expression between samples with and without doxycycline treatment (NEUROD1 [1]; pooled cells): ~22 fold
- induction of NEUROD1 (NEUROD1 [2]; 12 h): ~4000 fold
- induction of NEUROD1 (NEUROD1 [2]; 24 h): ~5000 fold
- induction of NEUROD1 (NEUROD1 [2]; 48 h): ~10000 fold
- induction of NEUROD1 (NEUROD1 [2]; 96 h): ~15000 fold
- increase in NEUROD1 gene expression (NEUROD1 [2]; doxycycline 2 ng/mL, 96 h): ~337 fold
- increase in NEUROD1 gene expression (NEUROD1 [2]; doxycycline 2 μg/mL, 96 h): ~26015 fold
